Source: patent US20190076440A1, “TREATMENT OF TISSUE DISORDERS” (priority 2016, published 2019)

What was measured:
[1] = test system: mutant collagen X; assay: Western blot of intracellular mutant collagen X protein, with proteasome or lysosome inhibitors; format: cell-based
Protocol: FIG. 1 illustrates the effects of carbamazepine treatment on ER stress induced by four different MCDS-causing mutations in collagen X; (a) BiP, b) CHOP c) spliced XBP1 mRNA level in cells transiently expressing one of four mutant collagen X constructs and treated for 24 hours with Carbamazepine (CBZ) (20 μM). Quantitation is relative to actin mRNA levels. Mean±SEM. (d) Western blot showing intracellular collagen X protein levels with and without 24 hours CBZ treatment. Quantification of three independent experiments shown in (e). (f) Western blot for N617K collagen X collagen X protein levels in the presence of CBZ for either 0 or 24 hours. […] Quantification of three independent experiments relative to GAPDH and standardised against the protein level in the 16 h untreated timepoint is shown in (h) and (i). […]
FIG. 6 illustrates the degradation route of mutant collagen X proteins Western blot for (a) G618V or (c) Y598D collagen X protein levels in the presence of CBZ for either 0 or 24 hours. […] Quantification of three independent experiments relative to GAPDH and standardised against the protein level in the 16 h untreated timepoint is shown in (b) and (d). […]
Protein was extracted from cells 24 hours post-transfection. […] The resulting supernatant was transferred to a fresh tube and protein concentration determined using a Pierce bicinchoninic acid (BCA) protein assay. […]

[2] = test system: HeLa cells; assay: Cell viability of cells treated with CBZ; format: cell-based; settings: 20 μM CBZ
Protocol: (§1) FIG. 5 illustrates the effect of CBZ treatment in vitro (a) Cell viability of cell treated with 20 μM CBZ. (b) Collagen X mRNA level of HeLa cells transiently transfected with a rang of collagen X mutations in the presence or absence of CBZ for 24 hours. (c) General protein synthesis rates of cells expressing wild-type (WT) or N617K collagen X and treated with CBZ for 24 hours. UTF=untransfected cell controls. Mean±SEM of three independent experiments in each case.

[3] = test system: cells expressing wild-type (WT) or N617K collagen X; assay: General protein synthesis rates in cells expressing collagen X; format: cell-based; settings: CBZ for 24 hours
Protocol: as §1

[4] = test system: wild type (+/+) or Col1a2 p.G610C (+/-) osteoblast cells; assay: Cellular stress assay: CHOP expression by qPCR in osteoblasts; format: cell-based, mouse; settings: 20 μM CBZ, 21 days, relative to DMSO controls
Protocol: Cells were incubated for 21 days with 20 μM CBZ before extracting RNA and quantification by qPCR. Each data point represents a separate biological replicate. Error bars show standard error of mean. *=p<0.05.
Expression levels of CCAAT-enhancer binding protein homologous protein (CHOP) was measured. Wild type (+/+) or Col1a2 p.G610C (+/−) cells were incubated in osteogenic differentiation media for 21 days with or without 20 μM CBZ.
RNA was extracted from the cells after 21 days and the levels of Chop gene expression was quantified by qPCR using a protocol as previously described herein.

[5] = test system: R992C Col2a1 SEDC mice; assay: TUNEL assay of chondrocyte apoptosis in the tibial growth plate of SEDC mice; format: in vivo; settings: single treated mouse, no quantitative analysis
Protocol: The effect of CBZ on p.R992C Col2a1 mutant mice (spondyloepiphyseal dysplasia congenital (SEDC) model mice) was tested.
R992C Col2a1 SEDC mice were treated with carbamazepine (CBZ), to determine whether treatment ameliorates the disease phenotype. Increased chondrocyte apoptosis within the epiphyseal growth plate is associated with the onset of disease from 3 weeks in mouse models expressing this mutant form of COL2A1.
Chondrocyte apoptosis was detected by a Terminal deoxynucleotide transferase dUTP nick end labelling (TUNEL) assay. Tibial growth plates from wild type and SEDC mutant mice were stained according to the manufactures instructions before being imaged (data not shown).

[6] = test system: Cells carrying a COL4A2 missense mutation; assay: BIP and ATF6 expression and protein in cells carrying a COL4A2 missense mutation; format: cell-based; settings: 50 μM CBZ, data not shown
Protocol: Cells carrying a COL4A2 missense mutation (which causes haemorrhagic stroke) are treated with 50 μM CBZ. After treatment expression of BIP and ATF 6 are determined by qPCR and mRNA analysis and levels of BIP and ATF6 protein are determined by SDS-PAGE and western blot analysis as previously described herein.

For `NC(=O)N1c2ccccc2C=Cc2ccccc21` [CBZ, Carbamazepine], the “degradation rates of mutant collagen X proteins” value ([1]; each of 4 mutant collagen X proteins, PSII or chloroquine for the final 8 hours) was “enhanced the degradation rates”, the “intracellular levels of mutant collagen X protein” value ([1]; each of 4 mutations, 24 hours CBZ treatment) was “significant reductions” and the cell viability [2] was “did not affect”. For the same compound, the “rates of general protein synthesis” value [3] was “did not affect”, the Chop expression [4] was “significantly decreased” and the “level of apoptosis in tibial growth plate chondrocytes (TUNEL)” value [5] was “did not necessarily reduce”. The ATF6 expression ([6]; qPCR) was “decreased level”, the BIP expression ([6]; qPCR) was “decreased level” and the ATF6 protein level ([6]; western blot) was “decreased level”. The BIP protein level ([6]; western blot) was “decreased level”.
